# Data from the supplement of paper PMC10307832.
# What was measured:
# Test in all cases: relative viability (nuclei count vs DMSO), 5 days (fraction); higher = more cells survive
# LCLC-97TM1 = system: LCLC-97TM1
# In short: (§1)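 Nuclei were stained with Hoechst during a one-step fixation (final 0.05% Triton X-100, 1% formaldehyde, 1 ug/ml Hoechst) carried out 5 days after dosing, then counted on 4× images. The cells, lung cancer lines in 1536-well plates, had been dosed by pin tool the day after seeding with one drug alone or a fixed anchor-drug dose plus five library-drug doses (not always all listed) in √10 steps. Relative viability is the nuclei count in treated wells divided by that in vehicle wells, and each value is the median of duplicate plates.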
# NCI-H460 = system: NCI-H460
# In short: as §1
# NCI-H520 = system: NCI-H520
# In short: as §1
# PC-3 [JPC-3] = system: PC-3 [JPC-3]
# In short: as §1
# NCI-H322M = system: NCI-H322M
# In short: as §1
# NCI-H838 = system: NCI-H838
# In short: as §1
# NCI-H1915 = system: NCI-H1915
# In short: as §1
# NCI-H1792 = system: NCI-H1792
# In short: as §1
# NCI-H1437 = system: NCI-H1437
# In short: as §1
# NCI-H1666 = system: NCI-H1666
# In short: as §1
# SK-LU-1 = system: SK-LU-1
# In short: as §1
# NCI-H1975 = system: NCI-H1975
# In short: as §1
# NCI-H1650 = system: NCI-H1650
# In short: as §1
# NCI-H647 = system: NCI-H647
# In short: as §1
# NCI-H727 = system: NCI-H727
# In short: as §1
# NCI-H441 = system: NCI-H441
# In short: as §1
# NCI-H23 = system: NCI-H23
# In short: as §1
# NCI-H661 = system: NCI-H661
# In short: as §1
# NCI-H596 = system: NCI-H596
# In short: as §1
smiles,measurement,setting,value
Cc1cn(-c2cc(NC(=O)c3ccc(C)c(Nc4nccc(-c5cccnc5)n4)c3)cc(C(F)(F)F)c2)cn1 [Nilotinib] + CC(C)C[C@H](NC(=O)[C@H](Cc1ccccc1)NC(=O)c1cnccn1)B(O)O [Bortezomib] (partner 0.002 µM),relative viability,LCLC-97TM1; first compound 0.001 µM,0.454
same,relative viability,LCLC-97TM1; first compound 0.003162 µM,0.158
same,relative viability,LCLC-97TM1; first compound 0.01 µM,0.946
same,relative viability,LCLC-97TM1; first compound 0.03162 µM,0.295
same,relative viability,LCLC-97TM1; first compound 0.1 µM,0.511
same,relative viability,NCI-H460; first compound 0.001 µM,0.689
same,relative viability,NCI-H460; first compound 0.03162 µM,0.627
same,relative viability,NCI-H460; first compound 0.1 µM,0.866
same,relative viability,NCI-H520; first compound 0.001 µM,0.591
same,relative viability,NCI-H520; first compound 0.01 µM,0.776
same,relative viability,NCI-H520; first compound 0.03162 µM,0.526
same,relative viability,NCI-H520; first compound 0.1 µM,0.34
same,relative viability,PC-3 [JPC-3]; first compound 0.001 µM,0.848
same,relative viability,PC-3 [JPC-3]; first compound 0.003162 µM,0.88
same,relative viability,PC-3 [JPC-3]; first compound 0.01 µM,0.975
same,relative viability,PC-3 [JPC-3]; first compound 0.03162 µM,0.707
same,relative viability,PC-3 [JPC-3]; first compound 0.1 µM,0.46
same,relative viability,NCI-H322M; first compound 0.001 µM,1.27
same,relative viability,NCI-H322M; first compound 0.003162 µM,1.47
same,relative viability,NCI-H322M; first compound 0.03162 µM,1.18
same,relative viability,NCI-H322M; first compound 0.1 µM,1.39
same,relative viability,NCI-H838; first compound 0.001 µM,0.867
same,relative viability,NCI-H838; first compound 0.003162 µM,0.731
same,relative viability,NCI-H838; first compound 0.01 µM,0.976
same,relative viability,NCI-H838; first compound 0.03162 µM,0.673
same,relative viability,NCI-H838; first compound 0.1 µM,0.709
same,relative viability,NCI-H1915; first compound 0.001 µM,0.932
same,relative viability,NCI-H1915; first compound 0.003162 µM,1.17
same,relative viability,NCI-H1915; first compound 0.01 µM,1.18
same,relative viability,NCI-H1915; first compound 0.03162 µM,0.823
same,relative viability,NCI-H1915; first compound 0.1 µM,0.85
same,relative viability,NCI-H1792; first compound 0.001 µM,0.94
same,relative viability,NCI-H1792; first compound 0.01 µM,1.2
same,relative viability,NCI-H1792; first compound 0.1 µM,1.23
same,relative viability,NCI-H1437; first compound 0.001 µM,0.485
same,relative viability,NCI-H1437; first compound 0.003162 µM,0.505
same,relative viability,NCI-H1437; first compound 0.01 µM,0.651
same,relative viability,NCI-H1437; first compound 0.03162 µM,0.367
same,relative viability,NCI-H1437; first compound 0.1 µM,0.161
same,relative viability,NCI-H1666; first compound 0.001 µM,0.774
same,relative viability,NCI-H1666; first compound 0.01 µM,0.649
same,relative viability,NCI-H1666; first compound 0.03162 µM,0.985
same,relative viability,NCI-H1666; first compound 0.1 µM,0.829
same,relative viability,SK-LU-1; first compound 0.001 µM,1.29
same,relative viability,SK-LU-1; first compound 0.01 µM,0.831
same,relative viability,SK-LU-1; first compound 0.03162 µM,1
same,relative viability,SK-LU-1; first compound 0.1 µM,0.949
same,relative viability,NCI-H1975; first compound 0.001 µM,0.32
same,relative viability,NCI-H1975; first compound 0.003162 µM,0.315
same,relative viability,NCI-H1975; first compound 0.01 µM,0.268
same,relative viability,NCI-H1975; first compound 0.03162 µM,0.279
same,relative viability,NCI-H1975; first compound 0.1 µM,0.171
same,relative viability,NCI-H1650; first compound 0.001 µM,0.2
same,relative viability,NCI-H1650; first compound 0.003162 µM,0.195
same,relative viability,NCI-H1650; first compound 0.01 µM,0.18
same,relative viability,NCI-H1650; first compound 0.03162 µM,0.196
same,relative viability,NCI-H1650; first compound 0.1 µM,0.197
same,relative viability,NCI-H647; first compound 0.001 µM,0.79
same,relative viability,NCI-H647; first compound 0.003162 µM,1.52
same,relative viability,NCI-H647; first compound 0.03162 µM,0.57
same,relative viability,NCI-H647; first compound 0.1 µM,0.951
same,relative viability,NCI-H727; first compound 0.001 µM,0.848
same,relative viability,NCI-H727; first compound 0.01 µM,0.976
same,relative viability,NCI-H727; first compound 0.03162 µM,0.678
same,relative viability,NCI-H727; first compound 0.1 µM,0.484
same,relative viability,NCI-H441; first compound 0.001 µM,0.33
same,relative viability,NCI-H441; first compound 0.003162 µM,0.735
same,relative viability,NCI-H441; first compound 0.01 µM,0.492
same,relative viability,NCI-H441; first compound 0.1 µM,0.219
same,relative viability,NCI-H23; first compound 0.001 µM,1.07
same,relative viability,NCI-H23; first compound 0.003162 µM,1.37
same,relative viability,NCI-H23; first compound 0.01 µM,1.4
same,relative viability,NCI-H23; first compound 0.03162 µM,0.73
same,relative viability,NCI-H23; first compound 0.1 µM,0.775
same,relative viability,NCI-H661; first compound 0.001 µM,0.752
same,relative viability,NCI-H661; first compound 0.003162 µM,0.831
same,relative viability,NCI-H661; first compound 0.01 µM,1.02
same,relative viability,NCI-H661; first compound 0.03162 µM,0.642
same,relative viability,NCI-H661; first compound 0.1 µM,0.815
same,relative viability,NCI-H596; first compound 0.001 µM,1.16
same,relative viability,NCI-H596; first compound 0.003162 µM,1.03
same,relative viability,NCI-H596; first compound 0.01 µM,1.18
same,relative viability,NCI-H596; first compound 0.03162 µM,1.21
same,relative viability,NCI-H596; first compound 0.1 µM,0.96
